The source of these data is patent publication US20230160021A1, “METHOD FOR THE DETECTION OF A SEXUALLY TRANSMITTED INFECTIOUS PATHOGEN” (SELFDIAGNOSTICS DEUTSCHLAND GMBH, priority 2016, published 2023).

One assay concerns LAMP reaction. Kind of assay: LAMP amplification activity in the presence of lytic agents / lytic peptides. In kind it is biochemical. Particulars: for inhibiting effect on the LAMP amplification efficiency: 5 μM antimicrobial peptide in LAMP reaction. As to the method:
Loop-mediated isothermal amplification activity in the presence of different lytic agents. Percentage of amplification activity in the presence of 0.1% polyethylene glycol p-(1,1,3,3-tetramethylbutyl)-phenyl ether, 0.1 mg/ml lysozyme (with or without 0.1% polyethylene glycol p-(1,1,3,3-tetramethylbutyl)-phenyl ether or 1 mM EDTA) or alkaline lysis components.
Loop-mediated isothermal amplification activity in the presence of different lytic peptides. Percentage of amplification activity in the presence of 5 μM antimicrobial peptides.

The next assay relates to E. coli. Briefly: Loop-mediated isothermal amplification directly from E. coli cell lysates after pretreatment of urine spiked E. coli. In kind it is cell-based, Escherichia coli.

Method for E. coli: Loop-mediated isothermal amplification directly from E. coli cell lysates. Isothermal amplification after pretreatment of urine spiked E. coli with different lysate preparation techniques. Lysozyme was used at 1 mg/ml concentration, polyethylene glycol p-(1,1,3,3-tetramethylbutyl)-phenyl ether at 1% and peptides at 50 μM concentration for the biological sample treatment. All sample pretreatments were performed for 5 min at RT° C. (except for heat treatment that was incubated at 95° C.).
A biological sample containing E. coli bacteria (urine sample in FIG. 6) is treated with 50 μM antimicrobial peptide belonging to but not limited to cecropin group (Cecropin P1 or SB-37 in FIG. 6) for 5 min at RT° C. 5 μl of the urine sample is added directly to the loop-mediated amplification reaction, so that final reaction volume is 50 μl and final components concentration as follows: 0.2 μM F3 primer, 0.2 μM B3 primer, 1.6 μM BIP primer, 1.6 μM FIP primer, 0.8 μM LF primer, 0.8 μM LB primer, 8 mM MgSO4, 1.4 mM dNTP, 0.8M betain, 20 mM Tris-HCl pH 8.8, 10 mM KCl, 10 mM (NH4)2SO4, 0.1% (v/v) Tween 20 and 16 units of Bsm polymerase.

Regarding lysozyme, in the assay on LAMP reaction (lysozyme alone, 0.1 mg/ml in LAMP reaction), the “effect on the amplification efficiency” value is given as “very modest effect”. The isothermal amplification efficiency entry with LAMP reaction (lysozyme in combination with lysis enhancing agents (polyethylene glycol p-(1,1,3,3-tetramethylbutyl)-phenyl ether or EDTA)) is given as “significantly reduced”.
Turning to MSI-78, the “inhibiting effect on the LAMP amplification efficiency” value (shortened to “inhibiting effect”) in the assay on LAMP reaction is “quite severe inhibiting effect”.
With “Cecropin P1 (SWLSKTAKKLENSAKKRISEGIAIAIQGGPR; listed as Ascaris suum)”, the “increase of the target DNA available for the isothermal amplification” value with E. coli (50 μM peptide, 5 min at RT, urine spiked E. coli, LAMP (FIG. 6)) is 6 times. Besides, the “effect of sample pre-treatment on isothermal amplification efficiency” value with E. coli (urine sample, peptide pre-treatment (FIG. 6)) is listed as “enhancing effect”. In addition, the entries for the “inhibiting effect” value in the assay with LAMP reaction and in the assay on LAMP reaction (listed as P1) were “lowest inhibitory effect” and “only mild inhibition”, respectively.
On to MSI-594, for which the “inhibiting effect” value in the assay on LAMP reaction is reported as “quite severe inhibiting effect”.
On the same count and under the same terms, the same measure for `CC[C@H](C)[C@H](NC(=O)CN)C(=O)NCC(=O)N[C@@H](C)C(=O)N[C@H](C(=O)N[C@@H](CC(C)C)C(=O)N[C@@H](CCCCN)C(=O)N[C@H](C(=O)N[C@@H](CC(C)C)C(=O)N[C@H](C(=O)N[C@H](C(=O)NCC(=O)N[C@@H](CC(C)C)C(=O)N1CCC[C@H]1C(=O)N[C@@H](C)C(=O)N[C@@H](CC(C)C)C(=O)N[C@H](C(=O)N[C@@H](CO)C(=O)N[C@@H](Cc1c[nH]c2ccccc12)C(=O)N[C@H](C(=O)N[C@@H](CCCCN)C(=O)N[C@@H](CCCNC(=N)N)C(=O)N[C@@H](CCCCN)C(=O)N[C@@H](CCCNC(=N)N)C(=O)N[C@@H](CCC(N)=O)C(=O)N[C@@H](CCC(N)=O)C(N)=O)[C@@H](C)CC)[C@@H](C)CC)[C@@H](C)O)[C@@H](C)O)C(C)C)C(C)C` [melittin]: “inhibiting effect comparable to alkaline lysis components”; for Bombolitin III: “only mild inhibition”.
